Where a name gives a salt, the structure may show the parent alone. Read-outs that look alike come from different tables or passages of the source.
Key:
[1] = test system: SERCA; conditions: cited from earlier work
[2] = target: T1, human two-color SERCA2a (2CS) biosensor (Homo sapiens, UniProt P16615); assay: FLT/FRET concentration-response of two-color SERCA2a (2CS) biosensor in live HEK293 cells; assay type: cell-based
T1 construct: expressed in transfected cells
Method: FRET CRC assay plates (0.78–100 μM compound range) with at least ten different compound concentrations were made by adding the appropriate volume of compound or DMSO into black 384 well plates (Greiner Bio-One) using a Mosquito HV (SPTLabTech, United Kingdom). Subsequent ATPase and Ca^2+-transport CRC assay plates (0–50 μM compound range) with repurchased compounds were made in a similar manner using with the Echo 550 (Beckman Coulter) using either 384 well transparent plates (Greiner Bio-One) or black-walled plates with transparent bottoms (Greiner Bio-One), respectively.
On each day of screening, cells were harvested, washed three times with PBS, and centrifuged at 300g for 5min. Cells were filtered using a 70μm cell strainer and diluted to 1–2 × 10^6 cells/mL. Cell concentration and viability were assessed using the Cell countess (Invitrogen) and trypan blue assay. During assays, cells were constantly and gently stirred using a magnetic stir bar at room temperature, keeping the cells in suspension and evenly distributed to avoid clumping. Cells were dispensed at 5μL or 50μL per well into assay plates (dispensed into 40 assay plates, each containing 1536 wells) pre-plated with either compound or DMSO using a Multdrop Combi liquid dispenser (Thermo Fisher Scientific, Pittsburg, PA) and sealed until needed. […] The FRET HTS screen was performed over two days with a custom HTS fluorescence lifetime plate reader (FLT-PR) and spectral plate reader (SUPR) provided by Photonic Pharma LLC (Minneapolis, MN)[18]. […]
A detailed description of the high-throughput fluorescence lifetime plate reader (FLT-PR) and spectral unmixing plate reader (SUPR), manufactured by Fluorescence Innovations Inc and provided by Photonic Pharma, LLC was described previously[18],[21]. Briefly, for lifetime measurement with the FLT-PR, the observed donor-fluorescence waveform, F (t) was fit by a convolution of the measured instrument response function (IRF) and a single-exponential decay to obtain the lifetime (τ) of the donor fluorophore[57] in the absence (τD) and presence (τDA) of the acceptor as described in Eq. (1): 1 F(t)=Ae^(−t/τ) FRET efficiency (E) was determined as the fractional decrease of donor FLT in the absence and in the presence of acceptor as in Eq. (2): 2 E=1−τDA/τD E was determined in the presence and absence of compound and normalized relative to E of the DMSO control. For spectral detection with the SUPR, the observed fluorescence emission spectrum F(λ) was fit by least-squares minimization of a linear combination of component spectra for donor (D), acceptor (A), cellular autofluorescence (C) and water Raman (W) as described previously. […]

[3] = target: T2, SERCA2a (Sus scrofa, UniProt P11607); assay: NADH-linked enzyme-coupled Ca2+-ATPase assay in pig cardiac SR vesicles; assay type: biochemical; conditions: for functional category (Ca2+-ATPase and Ca2+-transport, VMAX and VMID): based on both Ca2+-ATPase and Ca2+-transport assays; for Ca2+-ATPase increase at VMID (ΔVMID): midpoint Ca2+; for Ca2+-ATPase increase at VMAX (ΔVMAX): saturating Ca2+
T2 construct: SERCA2a in native SR preparations; from tissue; host or cells: porcine left ventricular tissue (cardiac SR vesicles)
T2 sequence (P11607 1-997 isoform P11607-2): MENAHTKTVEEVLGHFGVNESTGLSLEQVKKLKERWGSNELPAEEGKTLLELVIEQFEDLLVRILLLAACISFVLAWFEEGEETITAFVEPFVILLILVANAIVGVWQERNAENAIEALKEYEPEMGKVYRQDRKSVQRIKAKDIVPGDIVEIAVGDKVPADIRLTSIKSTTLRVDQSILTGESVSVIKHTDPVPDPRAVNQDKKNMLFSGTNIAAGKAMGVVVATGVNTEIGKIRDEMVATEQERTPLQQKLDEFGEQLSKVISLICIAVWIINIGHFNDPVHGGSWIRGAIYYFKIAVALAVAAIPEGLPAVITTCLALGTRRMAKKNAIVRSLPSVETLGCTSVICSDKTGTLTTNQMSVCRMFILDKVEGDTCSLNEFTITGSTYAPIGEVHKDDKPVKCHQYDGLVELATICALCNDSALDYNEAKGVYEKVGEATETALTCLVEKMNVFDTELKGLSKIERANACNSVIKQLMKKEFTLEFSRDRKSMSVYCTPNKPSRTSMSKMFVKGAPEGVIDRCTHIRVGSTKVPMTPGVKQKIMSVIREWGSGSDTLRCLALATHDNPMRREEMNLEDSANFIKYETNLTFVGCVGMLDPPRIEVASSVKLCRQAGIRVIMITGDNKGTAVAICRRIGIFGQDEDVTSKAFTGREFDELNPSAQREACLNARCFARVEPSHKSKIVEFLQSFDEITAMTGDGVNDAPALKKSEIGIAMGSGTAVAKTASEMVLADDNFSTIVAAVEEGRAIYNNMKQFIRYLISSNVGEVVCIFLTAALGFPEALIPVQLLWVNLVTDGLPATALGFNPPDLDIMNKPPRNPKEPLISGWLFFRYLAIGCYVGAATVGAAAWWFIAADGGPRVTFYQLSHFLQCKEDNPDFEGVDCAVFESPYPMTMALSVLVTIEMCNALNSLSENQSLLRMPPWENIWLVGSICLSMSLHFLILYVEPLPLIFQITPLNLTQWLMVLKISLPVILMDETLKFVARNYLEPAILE
Method: (§1) Cardiac SR vesicles were isolated from fresh porcine left ventricular tissue using differential centrifugation of the homogenized tissue as previously described. The SR vesicles were flash-frozen and stored at −80°C until needed.
Functional assays were performed using porcine cardiac SR vesicles. An enzyme-coupled, NADH-linked ATPase assay was used to measure SERCA ATPase activity in 384-well microplates. Each well contained 50 mM MOPS (pH 7.0), 100 mM KCl, 1 mM EGTA, 0.2 mM NADH, 1 mM phosphoenol pyruvate, 10 IU/mL of pyruvate kinase, 10 IU/mL of lactate dehydrogenase, 7 μM of the calcium ionophore A23187 (Sigma), and CaCl2 was added to set free [Ca^2+] to three different concentrations. The Ca^2+-ATPase were measured at VMAX (saturating, pCa 5.4), VM!D (subsaturating, midpoint, pCa 6.2), and basal (non-activating, pCa 8.0) [Ca^2+]. 10 μg/mL of SR vesicle, calcium, compound (0.048 to 50 μM), and assay mix were incubated for 20 min at room temperature before measurement of functional assays with each of the 18 hit compounds, because a shorter incubation time than the FRET live-cell assays achieved optimal responses. The assay was started upon the addition of MgATP at a final concentration of 5 mM (total volume to 80 μL), and absorbance was read in a SpectraMax Plus microplate spectrophotometer from Molecular Devices (Sunnyvale, CA) at 340nm.
(§2) SERCA2a ATPase (or Ca-transport) activity at pCa 8.0 was subtracted from pCa 5.4 and pCa 6.2 values. The % effect ATPase (or Ca-transport transport) activity was normalized to the DMSO only (or 2CS in the absence of compound), and then were plotted against [Ca], and the curves were fitted using the Hill function, where V is the initial ATPase rate (or fluorescence rate), VMAX is the ATPase (or Ca^2+-transport) at saturating [Ca^2+], and EC50 or pKCa, or VM!D is the apparent Ca^2+ dissociation constant as described previously ATPase (or Ca^2+-transport) at (Midpoint Ca^2+)[44].

[4] = target: T2, SERCA2a; assay: Fluo-4 oxalate-supported Ca2+-transport assay in pig cardiac SR vesicles; assay type: biochemical; conditions: for coupling ratio (CR), VMAX (Ca2+-transport) / VMAX (Ca2+-ATPase): at VMAX, control 0.66; for Ca2+-transport increase at VMID (Δ): midpoint Ca2+; for Ca2+-transport increase at VMID (Δ) / C10, Ca2+-transport at VMID: pCa 6.2; for Ca2+-transport change at VMAX (Δ, increase positive): saturating Ca2+
Method: as §1
Ca^2+-transport assays were performed with similar porcine SR samples as in the Ca^2+-ATPase assays described above. The compound effect on the Ca^2+-transport activity of SERCA2a was determined using an oxalate-supported assay in which the change in fluorescence in a Ca-sensitive dye, Fluor-4, was determined as previously described. A buffered solution containing 50 mM MOPS (pH 7.0), 100 mM KCl, 30 mg/mL sucrose, 1 mM EGTA, 10 mM potassium oxalate, 2 μM Fluo-4, 30 μg/mL porcine cardiac SR vesicles, CaCl2 calculated to reach the free [Ca^2+] (pCa 8.0, 6.2, and 5.4), and compound (0.048 to 50μM) was dispensed into 384-well black walled, transparent bottomed plates (Greiner Bio-One) containing the tested small molecule and incubated at 22°C for 20 minutes while covered and protected from light. To start the reaction, MgATP was added to a final concentration of 5 mM, and the decrease in 485-nm excited fluorescence of Fluo-4 was monitored at 520 nm for 15 min using a FLIPR Tetra (Molecular Devices, San Jose, CA).
as §2

[5] = design: method as in PMID 21878191; conditions: human usage; cited from earlier work
[6] = test system: SERCA; design: method as in PMID 32397211; conditions: assay not named; read-out: EC50 (affinity); cited from earlier work
[7] = 2CS biosensor, live HEK293 cells, CRC 0.78–100 μM compound, read-out: FRET EC50

T1 sequence (P16615 1-997 isoform P16615-2): as the sequence (P11607 1-997 isoform P11607-2) above, with K371R, K403N, P538S, M570L, N576H, E667D, S713A, T865S, V889I, L963V counted along it

Cc1ccc2cccc(NC(=O)c3ccc(OC(C)C)cc3)c2n1 [CDN1163]
effect on SERCA [1]: stimulates Ca^2+ transport

CCCCN(CC)c1nc(C)nc2c1c(C)cn2-c1c(C)cc(C)cc1C [CP-154526]
effect on SERCA [1]: increases the apparent Ca^2+ affinity of SERC2a

O=C(c1ccc(-c2ccc(O)cc2)nc1)N1CCC(CCc2ccccc2)CC1 [Compound 6]
EC50 ([2]; 2CS biosensor, normalized FRET E, read-out: FRET half maximal effect (EC50), Figure 6 legend): 7.1 ± 0.2 µM | functional category (Ca2+-ATPase and Ca2+-transport, VMAX and VMID) [3]: activates Ca^2+-ATPase with divergent effects on Ca^2+-transport | Ca2+-ATPase increase at VMID (ΔVMID) ([3]; pCa 6.2): 30% | C10 (compound concentration that changes function by 10%), Ca2+-ATPase at VMAX ([3]; pCa 5.4): 9.7 µM | EC50 ([3]; pCa 5.4, read-out: EC50, Ca2+-ATPase at VMAX): 11 µM | C10, Ca2+-ATPase at VMID ([3]; pCa 6.2): 8.7 µM | EC50 ([3]; pCa 6.2, read-out: EC50, Ca2+-ATPase at VMID): 11 µM | coupling ratio (CR), VMAX (Ca2+-transport) / VMAX (Ca2+-ATPase) [4]: 0.48 | Ca2+-transport increase at VMID (Δ) [4]: 17% | C10, Ca2+-transport at VMAX ([4]; pCa 5.4): 15 µM | Ca2+-transport inhibition at VMAX ([4]; pCa 5.4): 21% | C10, Ca2+-transport at VMID [4]: 4 µM

CCn1nc(C)c(CN2CCCC(Nc3ccc(C(C)C)cc3)C2)c1C (stereo not drawn) [Compound 7]
EC50 [2, 7]: 0.3 µM | functional category (Ca2+-ATPase and Ca2+-transport, VMAX and VMID) [3]: activates both Ca^2+-ATPase and Ca^2+-transport | Ca2+-ATPase increase at VMID (ΔVMID) ([3]; pCa 6.2): 7% | C10 (compound concentration that changes function by 10%), Ca2+-ATPase at VMAX ([3]; pCa 5.4): 25 µM | C10, Ca2+-ATPase at VMID ([3]; pCa 6.2): 25 µM | Ca2+-ATPase increase at VMAX (ΔVMAX) ([3]; pCa 5.4): 14% | coupling ratio (CR), VMAX (Ca2+-transport) / VMAX (Ca2+-ATPase) [4]: 0.74 | Ca2+-transport increase at VMID (Δ) [4]: 19% | C10, Ca2+-transport at VMAX ([4]; pCa 5.4): 14 µM | C10, Ca2+-transport at VMID [4]: 21 µM | Ca2+-transport change at VMAX (Δ, increase positive) ([4]; pCa 5.4): 24%

COc1ccc(C(=O)C2CCCN(Cc3nc(-c4ccc(F)cc4)cs3)C2)c(OC)c1 (stereo not drawn) [Compound 8]
EC50 [2, 7]: 4.9 µM | functional category (Ca2+-ATPase and Ca2+-transport, VMAX and VMID) [3]: activates both Ca^2+-ATPase and Ca^2+-transport | Ca2+-ATPase increase at VMID (ΔVMID) ([3]; pCa 6.2): 31% | C10, Ca2+-ATPase at VMAX ([3]; pCa 5.4): 4.3 µM | C10, Ca2+-ATPase at VMID ([3]; pCa 6.2): 7.8 µM | Ca2+-ATPase increase at VMAX (ΔVMAX) ([3]; pCa 5.4): 49% | coupling ratio (CR), VMAX (Ca2+-transport) / VMAX (Ca2+-ATPase) [4]: 0.4 | Ca2+-transport increase at VMID (Δ) [4]: 7% | C10, Ca2+-transport at VMAX ([4]; pCa 5.4): 25 µM | Ca2+-transport change at VMAX (Δ, increase positive) ([4]; pCa 5.4): 10%

OCC1(Cc2ccccc2F)CCCN(Cc2cc3c(cc2Cl)OCO3)C1 (stereo not drawn) [Compound 12]
EC50 ([2]; assay not given, probably FRET EC50 of Table 1, read-out: EC50 (affinity), compared with thapsigargin): 3.8 µM | Ca2+-ATPase inhibition at VMAX ([3]; pCa 5.4): 93% | Ca2+-ATPase inhibition at VMID ([3]; pCa 6.2): 90% | Ca2+-transport inhibition [4]: completely inhibited

O=C(c1cc(O)c(O)c([N+](=O)[O-])c1)c1ccccc1F [Ro 41–0960]
effect on SERCA [1]: increases SERCA maximal activity in high Ca^2+

C[C@]12CCC(=NOCCN)C[C@@H]1C(=O)C[C@@H]1[C@@H]2CC[C@]2(C)C(=O)CC[C@@H]12 [istaroxime, (E,Z)-3-((2-aminoethoxy)imino) androstane-6,17-dione hydrochloride)]
effect on SERCA [1]: stimulates SERCA activity | clearance rate [5]: high clearance rate | gastrointestinal absorption [5]: poor gastrointestinal absorption | metabolic transformation [5]: extensive metabolic transformation

C/C=C(/C)C(=O)O[C@H]1C(C)=C2[C@H]([C@@H]1OC(=O)CCCCCCC)[C@@](C)(OC(C)=O)C[C@H](OC(=O)CCC)[C@@]1(O)[C@H]2OC(=O)[C@@]1(C)O [thapsigargin]
EC50 [6]: ~0.0075 µM

— article PMC10002828, “FRET assay for live-cell high-throughput screening of the cardiac SERCA pump yields multiple classes of small-molecule allosteric modulators” (Research Square, 2023)
